Settings: human, in vivo
Description: The following hematologic studies were performed at admission and at discharge from the hospital: hematocrit, red cell count, white cell count, differential white cell count, hemoglobin concentration and reticulocyte count. Biochemical tests as follows were performed on admission, at discharge, and one month later: indirect bilirubin, direct bilirubin, total bilirubin, blood urea nitrogen, creatinine, glucose, calcium, phosphorus, albumin, total protein, alkaline phcsphatase, serum aspartate transminase (ASP), and serum alanine transaminase (ALT), lactic dehydrogenase (LDH), creatine phosphokinase (CPK), uric acid, and aldolase.
Clinical chemical tests were performed on 14 treated and 17 control patients at admission; at discharge there were 13 treated and 15 controls, and at one month there were 11 and 17 sets of tests performed.

In the case of `NC(=O)c1ncn([C@@H]2O[C@H](CO)[C@@H](O)[C@H]2O)n1` [ribavirin], the absolute lymphocyte count is reported as “more than doubled”.

— patent publication US4649911A, “Small particle aerosol generator for treatment of respiratory disease including the lungs” (Baylor College of Medicine, priority 1986, dated 1987)
